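The compound was tested at five concentrations on cells cultured in 96-well plates, with a 48-hour exposure period. At the TGI there is no net growth.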
What was measured:
Experiment in all cases: growth of human tumour cells (NCI), 48 h
COLO 205 colon = test system: COLO 205 colon
OVCAR-4 ovarian = test system: OVCAR-4 ovarian
M14 melanoma = test system: M14 melanoma
A498 renal = test system: A498 renal
HCT-116 colon = test system: HCT-116 colon
NCI-H23 lung = test system: NCI-H23 lung
OVCAR-5 ovarian = test system: OVCAR-5 ovarian
SK-MEL-2 melanoma = test system: SK-MEL-2 melanoma
MOLT-4 leukemia = test system: MOLT-4 leukemia
U251 CNS = test system: U251 CNS
DU-145 prostate = test system: DU-145 prostate
786-0 renal = test system: 786-0 renal
UACC-62 melanoma = test system: UACC-62 melanoma
MCF7 breast = test system: MCF7 breast
SK-MEL-5 melanoma = test system: SK-MEL-5 melanoma
SK-OV-3 ovarian = test system: SK-OV-3 ovarian
IGROV1 ovarian = test system: IGROV1 ovarian
UO-31 renal = test system: UO-31 renal
SF-539 CNS = test system: SF-539 CNS
HT29 colon = test system: HT29 colon
ACHN renal = test system: ACHN renal
MDA-N = test system: MDA-N
UACC-257 melanoma = test system: UACC-257 melanoma
T-47D breast = test system: T-47D breast
MALME-3M melanoma = test system: MALME-3M melanoma
SNB-75 CNS = test system: SNB-75 CNS
NCI/ADR-RES ovarian = test system: NCI/ADR-RES ovarian
SK-MEL-28 melanoma = test system: SK-MEL-28 melanoma
NCI-H226 lung = test system: NCI-H226 lung
HCC-2998 colon = test system: HCC-2998 colon
SF-268 CNS = test system: SF-268 CNS
RPMI-8226 leukemia = test system: RPMI-8226 leukemia
SF-295 CNS = test system: SF-295 CNS
NCI-H522 lung = test system: NCI-H522 lung
SNB-19 CNS = test system: SNB-19 CNS
CCRF-CEM leukemia = test system: CCRF-CEM leukemia
OVCAR-8 ovarian = test system: OVCAR-8 ovarian
HCT-15 colon = test system: HCT-15 colon
K-562 leukemia = test system: K-562 leukemia
BT-549 breast = test system: BT-549 breast
KM12 colon = test system: KM12 colon
SW-620 colon = test system: SW-620 colon
NCI-H460 lung = test system: NCI-H460 lung
PC-3 prostate = test system: PC-3 prostate
CAKI-1 renal = test system: CAKI-1 renal
MDA-MB-231 breast = test system: MDA-MB-231 breast
LOX IMVI melanoma = test system: LOX IMVI melanoma
HOP-92 NSCLC = test system: HOP-92 NSCLC
OVCAR-3 ovarian = test system: OVCAR-3 ovarian
A549 NSCLC = test system: A549 NSCLC
HL-60(TB) leukemia = test system: HL-60(TB) leukemia
HS 578T breast = test system: HS 578T breast
EKVX NSCLC = test system: EKVX NSCLC
MDA-MB-435 = test system: MDA-MB-435
SN12C renal = test system: SN12C renal
RXF 393 renal = test system: RXF 393 renal
TK-10 renal = test system: TK-10 renal
HOP-62 NSCLC = test system: HOP-62 NSCLC

## C=CCOc1cc(NC(=S)c2ccoc2C)ccc1OC
COLO 205 colon
  TGI: > 100 µM
OVCAR-4 ovarian
  TGI: > 100 µM
M14 melanoma
  TGI: > 100 µM
A498 renal
  TGI: > 100 µM
HCT-116 colon
  TGI: > 100 µM
NCI-H23 lung
  TGI: > 100 µM
OVCAR-5 ovarian
  TGI: > 100 µM
SK-MEL-2 melanoma
  TGI: > 100 µM
MOLT-4 leukemia
  TGI: > 100 µM
U251 CNS
  TGI: > 100 µM
DU-145 prostate
  TGI: > 100 µM
786-0 renal
  TGI: > 100 µM
UACC-62 melanoma
  TGI: > 100 µM
MCF7 breast
  TGI: > 100 µM
SK-MEL-5 melanoma
  TGI: > 100 µM
SK-OV-3 ovarian
  TGI: > 100 µM
IGROV1 ovarian
  TGI: > 100 µM
UO-31 renal
  TGI: > 100 µM
SF-539 CNS
  TGI: > 100 µM
HT29 colon
  TGI: > 100 µM
ACHN renal
  TGI: > 100 µM
MDA-N
  TGI: > 100 µM
UACC-257 melanoma
  TGI: > 100 µM
T-47D breast
  TGI: > 100 µM
MALME-3M melanoma
  TGI: > 100 µM
SNB-75 CNS
  TGI: > 100 µM
NCI/ADR-RES ovarian
  TGI: > 100 µM
SK-MEL-28 melanoma
  TGI: > 100 µM
NCI-H226 lung
  TGI: > 100 µM
HCC-2998 colon
  TGI: > 100 µM
SF-268 CNS
  TGI: > 100 µM
RPMI-8226 leukemia
  TGI: > 100 µM
SF-295 CNS
  TGI: > 100 µM
NCI-H522 lung
  TGI: > 100 µM
SNB-19 CNS
  TGI: > 100 µM
CCRF-CEM leukemia
  TGI: > 100 µM
OVCAR-8 ovarian
  TGI: > 100 µM
HCT-15 colon
  TGI: > 100 µM
K-562 leukemia
  TGI: > 100 µM
BT-549 breast
  TGI: > 100 µM
KM12 colon
  TGI: > 100 µM
SW-620 colon
  TGI: > 100 µM
NCI-H460 lung
  TGI: > 100 µM
PC-3 prostate
  TGI: > 100 µM
CAKI-1 renal
  TGI: > 100 µM
MDA-MB-231 breast
  TGI: > 100 µM
LOX IMVI melanoma
  TGI: > 100 µM
HOP-92 NSCLC
  TGI: > 100 µM
OVCAR-3 ovarian
  TGI: > 100 µM
A549 NSCLC
  TGI: > 100 µM
HL-60(TB) leukemia
  TGI: > 100 µM
HS 578T breast
  TGI: > 100 µM
EKVX NSCLC
  TGI: > 100 µM
MDA-MB-435
  TGI: > 100 µM
SN12C renal
  TGI: > 100 µM

## CC1CCC2(O)C3(C)CC4(O)OC2(C1O)C1(O)C3(O)C(OC(=O)c2ccc[nH]2)C(O)(C(C)C)C41C (stereo not drawn)
RXF 393 renal
  TGI: > 100 µM
COLO 205 colon
  TGI: > 100 µM
OVCAR-4 ovarian
  TGI: > 100 µM
M14 melanoma
  TGI: > 100 µM
A498 renal
  TGI: > 100 µM
HCT-116 colon
  TGI: > 100 µM
NCI-H23 lung
  TGI: > 100 µM
OVCAR-5 ovarian
  TGI: > 100 µM
SK-MEL-2 melanoma
  TGI: > 100 µM
TK-10 renal
  TGI: > 100 µM
MOLT-4 leukemia
  TGI: > 100 µM
U251 CNS
  TGI: > 100 µM
DU-145 prostate
  TGI: > 100 µM
786-0 renal
  TGI: > 100 µM
UACC-62 melanoma
  TGI: > 100 µM
MCF7 breast
  TGI: > 100 µM
SK-MEL-5 melanoma
  TGI: > 100 µM
SK-OV-3 ovarian
  TGI: > 100 µM
IGROV1 ovarian
  TGI: > 100 µM
UO-31 renal
  TGI: > 100 µM
SF-539 CNS
  TGI: > 100 µM
HT29 colon
  TGI: > 100 µM
ACHN renal
  TGI: > 100 µM
MDA-N
  TGI: > 100 µM
UACC-257 melanoma
  TGI: > 100 µM
T-47D breast
  TGI: > 100 µM
MALME-3M melanoma
  TGI: > 100 µM
SNB-75 CNS
  TGI: > 100 µM
NCI/ADR-RES ovarian
  TGI: > 100 µM
SK-MEL-28 melanoma
  TGI: > 100 µM
NCI-H226 lung
  TGI: > 100 µM
HCC-2998 colon
  TGI: > 100 µM
SF-268 CNS
  TGI: > 31.6 µM
RPMI-8226 leukemia
  TGI: > 100 µM
SF-295 CNS
  TGI: > 100 µM
NCI-H522 lung
  TGI: > 100 µM
SNB-19 CNS
  TGI: > 100 µM
CCRF-CEM leukemia
  TGI: > 100 µM
OVCAR-8 ovarian
  TGI: > 100 µM
HCT-15 colon
  TGI: > 100 µM
K-562 leukemia
  TGI: > 100 µM
BT-549 breast
  TGI: > 100 µM
KM12 colon
  TGI: > 100 µM
SW-620 colon
  TGI: > 100 µM
NCI-H460 lung
  TGI: > 100 µM
PC-3 prostate
  TGI: > 100 µM
CAKI-1 renal
  TGI: > 100 µM
MDA-MB-231 breast
  TGI: > 100 µM
LOX IMVI melanoma
  TGI: > 100 µM
HOP-92 NSCLC
  TGI: > 100 µM
OVCAR-3 ovarian
  TGI: > 100 µM
A549 NSCLC
  TGI: > 100 µM
HL-60(TB) leukemia
  TGI: > 100 µM
HS 578T breast
  TGI: > 100 µM
EKVX NSCLC
  TGI: > 100 µM
HOP-62 NSCLC
  TGI: > 100 µM
MDA-MB-435
  TGI: > 100 µM
SN12C renal
  TGI: > 100 µM
